The subject of data set [1] is liver cancer cells. Also noted: method as in PMID 31446646. Conditions: cited from earlier work.
Data set [2] concerns the target T1, CYP3A4 (Homo sapiens, UniProt P08684).
T1 construct: purchased IPHASE
As to the kind of experiment: IC50 assessment using recombinant human CYPs (probe testosterone). Conditions: recombinant CYP 0.025 μM, testosterone 0.05 mg mL^−1, 37 °C, 30 min, n = 3; read-out: IC50 against CYP3A4. Type of data set: in vitro ADME. How it is done: Figure 12 The inhibition curves for TNBG-5602 against cytochrome enzymes (mean ± SD, n = 3). TNBG-5602 (final concentrations of 0, 0.01, 0.1, 1.0, 10.0, and 100 μM) was incubated with recombinant cytochrome P450s (final concentration 0.025 μM) and the specific probe substates (final concentration 0.05 mg mL^−1) with NADPH to initiate the metabolic reaction. The incubations were carried out at 37 °C for 30 min with a total volume of 200 μL. The CYP isoforms tested were 2D6 (dextromethorphan), 2C9 (tolbutamide), and 3A4 (testosterone). […] The IC50 values were calculated using the GraphPad Prism statistical software (Version 8) by nonlinear regression analysis.
The LC-MS/MS instrument was the same as the system used to determine TNBG-5602. The mobile phase consisted of 0.1% formic acid, aqueous solution (Solvent A), and acetonitrile (Solvent B) at a flow rate of 0.3 mL min^−1. […]
For IC50 assessment, the inhibition curves were established by nonlinear regression analysis plotting the relative activity (y) versus the logarithm of the TNBG-5602 concentration (x). The inhibition curve and the half-maximal inhibitory concentration of TNBG-5602 against each CYP isoform were analyzed using the GraphPad Prism statistical software (version 8). […]

A short description of data set [3]: Stability of TNBG-5602 rat plasma samples on storage and freeze-thaw. Conditions: stored at −20 and −80 °C. In kind it is in vitro ADME.
For data set [4], the system named is five human cancer cell lines. Also noted: method as in PMID 35541052. Conditions: cited from earlier work.

T1 sequence (P08684 whole entry): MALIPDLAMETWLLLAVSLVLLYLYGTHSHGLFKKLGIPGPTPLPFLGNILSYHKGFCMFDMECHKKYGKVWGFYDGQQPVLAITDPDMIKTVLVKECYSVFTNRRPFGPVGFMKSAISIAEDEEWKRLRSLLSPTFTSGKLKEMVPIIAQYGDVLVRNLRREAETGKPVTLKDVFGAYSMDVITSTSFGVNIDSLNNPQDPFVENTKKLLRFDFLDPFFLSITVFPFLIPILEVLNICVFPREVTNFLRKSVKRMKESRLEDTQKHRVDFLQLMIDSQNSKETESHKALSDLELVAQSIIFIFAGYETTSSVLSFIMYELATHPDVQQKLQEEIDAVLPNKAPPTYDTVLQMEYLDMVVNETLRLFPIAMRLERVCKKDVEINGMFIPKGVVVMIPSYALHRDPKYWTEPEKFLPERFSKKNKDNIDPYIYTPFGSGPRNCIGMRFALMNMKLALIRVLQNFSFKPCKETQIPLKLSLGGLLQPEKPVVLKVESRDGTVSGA

In general, IC50 refers to the concentration that gives 50% inhibition. Regarding `CN(C)CCN1CC2c3ccccc3CCN2c2nc3ccccc3nc21` (stereo not shown) [TNBG-5602], in data set [1], the “inhibition of proliferation of liver cancer cells in vitro” value is reported as “effectively inhibited the proliferation”. Moreover, the concentration for half-maximal inhibition (IC50) in data set [2] worked out at 18.7 µM. Moreover, the “time plasma samples were stable on storage” value in data set [3] is given as “at least 90 days”. For the same compound, in data set [4], the “inhibitory activity against five human cancer cell lines” value was “strong inhibitory activity”.

These data come from article PMC9024597, “The Biological Fate of a Novel Anticancer Drug Candidate TNBG-5602: Metabolic Profile, Interaction with CYP450, and Pharmacokinetics in Rats” (Molecules, 2022).
